Experimental data reported in BindingDB's records for doi:10.1016/j.ejphar.2003.10.049 (University of Innsbruck, 2004).

Experiments:
Mu-type opioid receptor = Mu-type opioid receptor (Rattus norvegicus, UniProt P33535)
[1] = target: Kappa-type opioid receptor (Rattus norvegicus, UniProt P34975)
[2] = target: Delta-type opioid receptor (Rattus norvegicus, UniProt P33533)
Chain of Delta-type opioid receptor (P33533 whole entry): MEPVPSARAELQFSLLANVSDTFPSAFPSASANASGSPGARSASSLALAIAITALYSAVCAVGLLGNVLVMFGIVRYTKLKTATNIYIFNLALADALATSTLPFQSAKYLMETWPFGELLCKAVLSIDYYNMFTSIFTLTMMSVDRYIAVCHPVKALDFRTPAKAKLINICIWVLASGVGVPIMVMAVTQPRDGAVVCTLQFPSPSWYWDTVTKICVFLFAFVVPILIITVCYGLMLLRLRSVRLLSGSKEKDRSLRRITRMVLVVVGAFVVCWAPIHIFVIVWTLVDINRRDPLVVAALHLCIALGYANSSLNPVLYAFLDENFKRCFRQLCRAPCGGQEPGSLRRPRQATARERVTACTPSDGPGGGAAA

Chain of Kappa-type opioid receptor (P34975 whole entry): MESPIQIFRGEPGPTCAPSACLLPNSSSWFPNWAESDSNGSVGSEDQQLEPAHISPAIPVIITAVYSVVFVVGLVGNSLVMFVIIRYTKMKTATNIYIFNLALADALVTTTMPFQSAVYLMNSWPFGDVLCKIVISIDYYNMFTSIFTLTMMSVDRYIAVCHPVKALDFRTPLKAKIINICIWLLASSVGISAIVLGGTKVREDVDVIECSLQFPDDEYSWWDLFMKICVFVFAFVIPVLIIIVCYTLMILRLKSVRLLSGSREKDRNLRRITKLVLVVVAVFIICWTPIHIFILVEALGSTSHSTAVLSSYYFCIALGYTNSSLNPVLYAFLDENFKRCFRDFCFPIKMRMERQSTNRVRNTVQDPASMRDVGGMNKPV
Chain of Mu-type opioid receptor (P33535 whole entry): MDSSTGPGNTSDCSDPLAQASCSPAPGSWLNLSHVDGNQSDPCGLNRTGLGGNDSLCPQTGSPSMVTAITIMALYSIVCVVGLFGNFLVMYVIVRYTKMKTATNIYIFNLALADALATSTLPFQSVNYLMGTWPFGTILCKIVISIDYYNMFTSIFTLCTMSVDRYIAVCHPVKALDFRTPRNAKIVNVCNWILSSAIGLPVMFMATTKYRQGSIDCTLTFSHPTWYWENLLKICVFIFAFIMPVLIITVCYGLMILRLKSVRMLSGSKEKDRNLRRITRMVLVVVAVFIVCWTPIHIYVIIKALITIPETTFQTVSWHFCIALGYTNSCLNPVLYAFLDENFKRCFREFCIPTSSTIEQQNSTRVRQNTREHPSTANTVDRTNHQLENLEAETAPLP

## COC12CC[C@H](N[C@H](Cc3ccccc3)C(=O)O)[C@@H]3Oc4c(O)ccc5c4[C@@]31CCN(C)C2C5 (stereo partly drawn) [(2S)-2-[(4,5alpha-epoxy-3-hydroxy-14beta-methoxy-17-methylmorphinan-6alpha-yl)amino]-3-phenylpropanoic acid bis(tetrafluroborate)]
Mu-type opioid receptor
  Ki: 0.95 nM
[1]
  Ki: 28.5 nM

## CCO[C@@]12Cc3c([nH]c4ccccc34)[C@]3(C)Oc4c(O)ccc5c4[C@@]31CCN(CC1CC1)C2C5 [HS-378]
Mu-type opioid receptor
  Ki: 340 nM
[1]
  Ki: 134 nM

## COC12CC[C@@H](N[C@H](Cc3ccccc3)C(=O)O)[C@@H]3Oc4c(O)ccc5c4[C@@]31CCN(C)C2C5 (stereo partly drawn) [(2S)-2-[(4,5alpha-epoxy-3-hydroxy-14beta-methoxy-17-methylmorphinan-6beta-yl)amino]-3-phenylpropanoic acid bis(tetrafluoroborate)]
Mu-type opioid receptor
  Ki: 2.58 nM
[2]
  Ki: 1.03 nM
[1]
  Ki: 151 nM

## COC12CC[C@H](N[C@H](C)C(=O)O)[C@@H]3Oc4c(O)ccc5c4[C@@]31CCN(C)C2C5 (stereo partly drawn) [(2S)-2-[4,5alpha-epoxy-3-hydroxy-14beta-methoxy-17-methylmorphinan-6alpha-yl)amino]propanoic acid bis(tetrafluoroborate)]
[2]
  Ki: 26.9 nM
[1]
  Ki: 142 nM

## COC12CC[C@@H](N[C@H](C)C(=O)O)[C@@H]3Oc4c(O)ccc5c4[C@@]31CCN(C)C2C5 (stereo partly drawn) [(2S)-2-[4,5alpha-epoxy-3-hydroxy-14beta-methoxy-17-methylmorphinan-6beta-yl)amino]propanoic acid bis(tetrafluoroborate)]
[2]
  Ki: 7.71 nM
[1]
  Ki: 63.7 nM
